Results from PMC9846560, “Silver-promoted solid-phase guanidinylation enables the first synthesis of arginine glycosylated Samoamide A cyclopeptide analogue” (Frontiers in Chemistry, 2023).
In brackets after ≈: the same amount, converted by molar mass. Where a SMILES comes first, the peptide text is derived from it.

test: Solubility test (water solubility, saturated solution); format: physicochemical; conditions: water (saturated aqueous solution), from solid: saturated aqueous solution at 25°C, sonicated approx. 10 min, centrifuged, supernatant diluted, UV absorbance at 214 nm against Samoamide A standard curve (C = 0.4646A - 0.0201)
Experimental: Samoamide A was precisely weighed, and 1 mg was placed in a 10 ml centrifuge tube and diluted to scale with 95% ethanol. Then, 0, 200, 400, 600, 800, 1,000 μl aliquots were pipetted in a 5 ml centrifuge tube and adjusted to 1 ml with 95% ethanol, and the aqueous solutions were measured on a scale, sonicated for 5 min, and placed at room temperature. An additional 1 ml of 95% ethanol was added, and water was added to the same method as the blank. The absorbance values were measured at 214 nm to obtain the linear regression equation of the standard curve.
Sufficient amounts of Samoamide A and its glycosylated derivatives were dissolved in aqueous solutions at a constant temperature of 25°C, sonicated for approximately 10 min, centrifuged and allowed to settle to remove the insoluble matter from the solution, and the upper layer of supernatant was taken, that is, the saturated solution. After the saturated solution was properly diluted, its absorbance value was measured at 214 nm, and the concentration of the saturated solution was calculated by substituting the above equation ([Chevalier et al., 2001]).

solubility thermodynamic [µg/mL] | Compound
730 (≈ 801 µM) | CC[C@H](C)[C@@H]1NC(=O)[C@@H]2CCCN2C(=O)[C@H](Cc2ccccc2)NC(=O)[C@H](C(C)C)NC(=O)[C@H](CC(C)C)NC(=O)[C@@H]2CCCN2C(=O)[C@@H]2CCCN2C(=O)[C@H](Cc2ccccc2)NC1=O [Samoamide A] (cyclo(LVFPIFPP))

test: head-to-tail lactamisation of linear octapeptide (N-terminal Leu or Arg onto C-terminal Val or Arg), PyBOP (3 eq)/HOBt (3 eq)/DIPEA (6 eq), 0 °C to rt, 14 h; conditions: the molecule shown is the open-chain precursor; 24-membered ring; DCM; 12.0 h

Compound | ring closure, overall yield [%]
CC[C@H](C)[C@H](NC(=O)[C@H](Cc1ccccc1)NC(=O)[C@@H]1CCCN1C(=O)[C@H](CCCNC(=N)N[C@@H]1O[C@H](COC(C)=O)[C@@H](OC(C)=O)[C@H](OC(C)=O)[C@H]1NC(C)=O)NC(=O)[C@@H](N)CC(C)C)C(=O)N1CCC[C@H]1C(=O)N[C@@H](Cc1ccccc1)C(=O)N[C@H](C(=O)O)C(C)C [H-Leu-Arg(N-GlcNAc(OAc)3)-Pro-Phe-Ile-Pro-Phe-Val-OH] | 20

same assay, conditions: the molecule shown is the open-chain precursor; 24-membered ring; DCM; 14.0 h

Compound | ring closure, overall yield [%]
CC[C@H](C)[C@H](NC(=O)[C@H](Cc1ccccc1)NC(=O)[C@@H]1CCCN1C(=O)[C@@H]1CCCN1C(=O)[C@@H](N)CC(C)C)C(=O)N1CCC[C@H]1C(=O)N[C@@H](CCCNC(=N)NS(=O)(=O)c1c(C)c(C)c2c(c1C)CC(C)(C)O2)C(=O)N[C@H](C(=O)O)C(C)C [H-Leu-Pro-Pro-Phe-Ile-Pro-Arg(Pbf)-Val-OH] | 4
CC[C@H](C)[C@H](NC(=O)[C@H](Cc1ccccc1)NC(=O)[C@H](CCCNC(=N)NS(=O)(=O)c1c(C)c(C)c2c(c1C)CC(C)(C)O2)NC(=O)[C@@H]1CCCN1C(=O)[C@@H](N)CC(C)C)C(=O)N1CCC[C@H]1C(=O)N[C@@H](Cc1ccccc1)C(=O)N[C@H](C(=O)O)C(C)C [H-Leu-Pro-Arg(Pbf)-Phe-Ile-Pro-Phe-Val-OH] | 10
CC[C@H](C)[C@H](NC(=O)[C@H](Cc1ccccc1)NC(=O)[C@@H]1CCCN1C(=O)[C@H](CCCNC(=N)NS(=O)(=O)c1c(C)c(C)c2c(c1C)CC(C)(C)O2)NC(=O)[C@@H](N)CC(C)C)C(=O)N1CCC[C@H]1C(=O)N[C@@H](Cc1ccccc1)C(=O)N[C@H](C(=O)O)C(C)C [H-Leu-Arg(Pbf)-Pro-Phe-Ile-Pro-Phe-Val-OH] | 10
CC[C@H](C)[C@H](NC(=O)[C@H](Cc1ccccc1)NC(=O)[C@@H]1CCCN1C(=O)[C@@H]1CCCN1C(=O)[C@@H](N)CC(C)C)C(=O)N1CCC[C@H]1C(=O)N[C@@H](Cc1ccccc1)C(=O)N[C@H](C(=O)O)C(C)C [H-Leu-Pro-Pro-Phe-Ile-Pro-Phe-Val-OH] | 15
CC[C@H](C)[C@H](NC(=O)[C@H](Cc1ccccc1)NC(=O)[C@@H]1CCCN1C(=O)[C@@H]1CCCN1C(=O)[C@@H](N)CC(C)C)C(=O)N1CCC[C@H]1C(=O)N[C@@H](Cc1ccccc1)C(=O)N[C@@H](CCCNC(=N)NS(=O)(=O)c1c(C)c(C)c2c(c1C)CC(C)(C)O2)C(=O)O [H-Leu-Pro-Pro-Phe-Ile-Pro-Phe-Arg(Pbf)-OH] | 6
CC[C@H](C)[C@H](NC(=O)[C@H](Cc1ccccc1)NC(=O)[C@@H]1CCCN1C(=O)[C@@H]1CCCN1C(=O)[C@@H](N)CC(C)C)C(=O)N[C@@H](CCCNC(=N)NS(=O)(=O)c1c(C)c(C)c2c(c1C)CC(C)(C)O2)C(=O)N[C@@H](Cc1ccccc1)C(=O)N[C@H](C(=O)O)C(C)C [H-Leu-Pro-Pro-Phe-Ile-Arg(Pbf)-Phe-Val-OH] | 5
CC[C@H](C)[C@H](NC(=O)[C@H](CCCNC(=N)NS(=O)(=O)c1c(C)c(C)c2c(c1C)CC(C)(C)O2)NC(=O)[C@@H]1CCCN1C(=O)[C@@H]1CCCN1C(=O)[C@@H](N)CC(C)C)C(=O)N1CCC[C@H]1C(=O)N[C@@H](Cc1ccccc1)C(=O)N[C@H](C(=O)O)C(C)C [H-Leu-Pro-Pro-Arg(Pbf)-Ile-Pro-Phe-Val-OH] | 8
CC[C@H](C)[C@H](NC(=O)[C@H](Cc1ccccc1)NC(=O)[C@@H]1CCCN1C(=O)[C@@H]1CCCN1C(=O)[C@@H](N)CCCNC(=N)NS(=O)(=O)c1c(C)c(C)c2c(c1C)CC(C)(C)O2)C(=O)N1CCC[C@H]1C(=O)N[C@@H](Cc1ccccc1)C(=O)N[C@H](C(=O)O)C(C)C [H-Arg(Pbf)-Pro-Pro-Phe-Ile-Pro-Phe-Val-OH] | 9
Cc1c(C)c(S(=O)(=O)NC(=N)NCCC[C@H](NC(=O)[C@H](Cc2ccccc2)NC(=O)[C@@H]2CCCN2C(=O)[C@@H]2CCCN2C(=O)[C@@H](N)CC(C)C)C(=O)N2CCC[C@H]2C(=O)N[C@@H](Cc2ccccc2)C(=O)N[C@H](C(=O)O)C(C)C)c(C)c2c1OC(C)(C)C2 [H-Leu-Pro-Pro-Phe-Arg(Pbf)-Pro-Phe-Val-OH] | 6
